# Laboratory results: ChEMBL document CHEMBL5131391, “One-pot three-component synthesis of novel pyrazolo[3,4-b]pyridines as potent antileukemic agents” (Eur J Med Chem, 2022)
# Assays:
# Assay type in all cases: functional
# [1] = tested on: ML-2; assay: Antiproliferative activity against human ML-2 cells assessed as reduction in cell viability incubated for 72 hrs by resazurin dye based assay; conditions: ML-2, 72 h
# [2] = tested on: RS4-11; assay: Antiproliferative activity against human RS4-11 cells assessed as reduction in cell viability incubated for 72 hrs by resazurin dye based assay; conditions: RS4-11, 72 h
# [3] = tested on: RPMI-8226; assay: Antiproliferative activity against human RPMI-8226 cells assessed as growth inhibition at 10 uM measured after 48 hrs by NCI protocol based SRB assay relative to control; conditions: read-out: GI
# [4] = tested on: HOP-92; assay: Antiproliferative activity against human HOP-92 cells assessed as growth inhibition at 10 uM measured after 48 hrs by NCI protocol based SRB assay relative to control; conditions: read-out: GI
# [5] = tested on: NCI-H322M; assay: Antiproliferative activity against human NCI-H322M cells assessed as growth inhibition at 10 uM measured after 48 hrs by NCI protocol based SRB assay relative to control; conditions: read-out: GI
# [6] = tested on: NCI-H226; assay: Antiproliferative activity against human NCI-H226 cells assessed as growth inhibition at 10 uM measured after 48 hrs by NCI protocol based SRB assay relative to control; conditions: read-out: GI
# [7] = tested on: COLO 205; assay: Antiproliferative activity against human COLO 205 cells assessed as growth inhibition at 10 uM measured after 48 hrs by NCI protocol based SRB assay relative to control; conditions: read-out: GI
# [8] = tested on: HT-29; assay: Antiproliferative activity against human HT-29 cells assessed as growth inhibition at 10 uM measured after 48 hrs by NCI protocol based SRB assay relative to control; conditions: read-out: GI
# [9] = tested on: SF-539; assay: Antiproliferative activity against human SF-539 cells assessed as growth inhibition at 10 uM measured after 48 hrs by NCI protocol based SRB assay relative to control; conditions: read-out: GI
# [10] = tested on: SF-295; assay: Antiproliferative activity against human SF-295 cells assessed as growth inhibition at 10 uM measured after 48 hrs by NCI protocol based SRB assay relative to control; conditions: read-out: GI
# [11] = tested on: SNB-75; assay: Antiproliferative activity against human SNB-75 cells assessed as growth inhibition at 10 uM measured after 48 hrs by NCI protocol based SRB assay relative to control; conditions: read-out: GI
# [12] = tested on: MDA-MB-435; assay: Antiproliferative activity against human MDA-MB-435 cells assessed as growth inhibition at 10 uM measured after 48 hrs by NCI protocol based SRB assay relative to control; conditions: read-out: GI
# [13] = tested on: Malme-3M; assay: Antiproliferative activity against human Malme-3M cells assessed as growth inhibition at 10 uM measured after 48 hrs by NCI protocol based SRB assay relative to control; conditions: read-out: GI
# [14] = tested on: UACC-62; assay: Antiproliferative activity against human UACC-62 cells assessed as growth inhibition at 10 uM measured after 48 hrs by NCI protocol based SRB assay relative to control; conditions: read-out: GI
# [15] = tested on: UACC-257; assay: Antiproliferative activity against human UACC-257 cells assessed as growth inhibition at 10 uM measured after 48 hrs by NCI protocol based SRB assay relative to control; conditions: read-out: GI
# [16] = tested on: IGROV-1; assay: Antiproliferative activity against human IGROV-1 cells assessed as growth inhibition at 10 uM measured after 48 hrs by NCI protocol based SRB assay relative to control; conditions: read-out: GI
# [17] = tested on: OVCAR-8; assay: Antiproliferative activity against human OVCAR-8 cells assessed as growth inhibition at 10 uM measured after 48 hrs by NCI protocol based SRB assay relative to control; conditions: read-out: GI
# [18] = tested on: SK-OV-3; assay: Antiproliferative activity against human SK-OV-3 cells assessed as growth inhibition at 10 uM measured after 48 hrs by NCI protocol based SRB assay relative to control; conditions: read-out: GI
# [19] = tested on: SN12C; assay: Antiproliferative activity against human SN12C cells assessed as growth inhibition at 10 uM measured after 48 hrs by NCI protocol based SRB assay relative to control; conditions: read-out: GI
# [20] = tested on: CAKI-1; assay: Antiproliferative activity against human CAKI-1 cells assessed as growth inhibition at 10 uM measured after 48 hrs by NCI protocol based SRB assay relative to control; conditions: read-out: GI
# [21] = tested on: MCF7; assay: Antiproliferative activity against human MCF7 cells assessed as growth inhibition at 10 uM measured after 48 hrs by NCI protocol based SRB assay relative to control; conditions: read-out: GI
# [22] = tested on: T47D; assay: Antiproliferative activity against human T47D cells assessed as growth inhibition at 10 uM measured after 48 hrs by NCI protocol based SRB assay relative to control; conditions: read-out: GI
# [23] = tested on: BT-549; assay: Antiproliferative activity against human BT-549 cells assessed as growth inhibition at 10 uM measured after 48 hrs by NCI protocol based SRB assay relative to control; conditions: read-out: GI
# [24] = tested on: CCRF-CEM; assay: Antiproliferative activity against human CEM cells assessed as reduction in cell viability incubated for 72 hrs by resazurin dye based assay
# [25] = tested on: KOPN-8; assay: Antiproliferative activity against human KOPN-8 cells assessed as reduction in cell viability incubated for 72 hrs by resazurin dye based assay; conditions: KOPN-8, 72 h
# [26] = tested on: HCC 2998; assay: Antiproliferative activity against human HCC 2998 cells assessed as growth inhibition at 10 uM measured after 48 hrs by NCI protocol based SRB assay relative to control; conditions: read-out: GI
# [27] = tested on: OVCAR-5; assay: Antiproliferative activity against human OVCAR-5 cells assessed as growth inhibition at 10 uM measured after 48 hrs by NCI protocol based SRB assay relative to control; conditions: read-out: GI
# [28] = tested on: A498; assay: Antiproliferative activity against human A498 cells assessed as growth inhibition at 10 uM measured after 48 hrs by NCI protocol based SRB assay relative to control; conditions: read-out: GI
# [29] = tested on: MDA-MB-468; assay: Antiproliferative activity against human MDA-MB-468 cells assessed as growth inhibition at 10 uM measured after 48 hrs by NCI protocol based SRB assay relative to control; conditions: read-out: GI
# [30] = tested on: CCRF-CEM; assay: Antiproliferative activity against human CCRF-CEM cells assessed as growth inhibition measured after 48 hrs by NCI protocol based SRB assay
# [31] = tested on: K562; assay: Antiproliferative activity against human K562 cells assessed as growth inhibition measured after 48 hrs by NCI protocol based SRB assay
# [32] = tested on: SNB-19; assay: Antiproliferative activity against human SNB-19 cells assessed as growth inhibition measured after 48 hrs by NCI protocol based SRB assay
# [33] = tested on: UO-31; assay: Antiproliferative activity against human UO-31 cells assessed as growth inhibition measured after 48 hrs by NCI protocol based SRB assay
# [34] = tested on: NCI-H322M; assay: Cytostatic activity in human NCI-H322M cells assessed as tumor growth inhibition measured after 48 hrs by NCI protocol based SRB assay
# [35] = tested on: SW-620; assay: Cytostatic activity in human SW-620 cells assessed as tumor growth inhibition measured after 48 hrs by NCI protocol based SRB assay
# [36] = tested on: Malme-3M; assay: Cytostatic activity in human Malme-3M cells assessed as tumor growth inhibition measured after 48 hrs by NCI protocol based SRB assay
# [37] = tested on: SK-OV-3; assay: Cytostatic activity in human SK-OV-3 cells assessed as tumor growth inhibition measured after 48 hrs by NCI protocol based SRB assay
# [38] = tested on: CAKI-1; assay: Cytostatic activity in human CAKI-1 cells assessed as tumor growth inhibition measured after 48 hrs by NCI protocol based SRB assay
# [39] = read-out: LC50 (the source's name)
Structure (SMILES),inhibition of growth at 10 µM [3],inhibition of growth at 10 µM [4],inhibition of growth at 10 µM [5],inhibition of growth at 10 µM [6],inhibition of growth at 10 µM [7],inhibition of growth at 10 µM [9],inhibition of growth at 10 µM [10],inhibition of growth at 10 µM [11],inhibition of growth at 10 µM [12],inhibition of growth at 10 µM [13],inhibition of growth at 10 µM [14],inhibition of growth at 10 µM [16],inhibition of growth at 10 µM [17],inhibition of growth at 10 µM [19],inhibition of growth at 10 µM [20],inhibition of growth at 10 µM [21],inhibition of growth at 10 µM [22],inhibition of growth at 10 µM [23],IC50 [24],inhibition of growth at 10 µM [29],other results
N#Cc1c(-c2ccco2)nc2c(c(-c3ccccc3)nn2-c2ccccc2)c1-c1ccc(O)cc1,45%,24%,19%,27%,97%,18%,34%,29%,38%,66%,11%,16%,45%,18%,42%,53%,82%,36%,23.9 µM,–,IC50 [1]: 12.8 µM; IC50 [2]: 15.1 µM; inhibition of growth at 10 µM [8]: 70%; inhibition of growth at 10 µM [15]: 40%; inhibition of growth at 10 µM [18]: 54%; IC50 [25]: 10 µM
N#Cc1c(-c2ccccc2)nc2c(c(-c3ccccc3)nn2-c2ccccc2)c1-c1ccc(O)cc1,87%,50%,34%,46%,59%,77%,143%,67%,49%,57%,39%,29%,45%,39%,48%,86%,65%,41%,33.4 µM,62%,"inhibition of growth at 10 µM [26]: 28%; inhibition of growth at 10 µM [8]: 16%; inhibition of growth at 10 µM [15]: 29%; inhibition of growth at 10 µM [27]: 19%; inhibition of growth at 10 µM [18]: 29%; inhibition of growth at 10 µM [28]: 101%; GI50 [30]: 3.13 µM; CC50 [30, 39]: > 100 µM; GI50 [31]: 2.68 µM; CC50 [31, 39]: > 100 µM; GI50 [32]: 1.9 µM; CC50 [32, 39]: 7.57 µM; GI50 [33]: 2.02 µM; CC50 [33, 39]: 8.59 µM; TGI [34]: 2.96 µM; TGI [35]: 3.53 µM; TGI [36]: 3.83 µM; TGI [37]: 8.48 µM; TGI [38]: 6.7 µM"
COc1cc(-c2c(C#N)c(-c3ccccc3)nc3c2c(-c2ccccc2)nn3-c2ccccc2)ccc1O,40%,22%,17%,24%,23%,18%,–,20%,32%,43%,12%,13%,28%,32%,37%,53%,39%,–,> 50 µM,38%,–
N#Cc1c(-c2ccc(Cl)cc2)nc2c(c(-c3ccccc3)nn2-c2ccccc2)c1-c1ccc(O)cc1,83%,44%,30%,35%,48%,89%,99%,58%,52%,39%,47%,31%,51%,118%,60%,81%,45%,38%,43.1 µM,69%,inhibition of growth at 10 µM [26]: 16%; inhibition of growth at 10 µM [15]: 15%; inhibition of growth at 10 µM [27]: 17%; inhibition of growth at 10 µM [28]: 21%
Cc1ccc(-c2nc3c(c(-c4ccccc4)nn3-c3ccccc3)c(-c3ccc(O)cc3)c2C#N)cc1,79%,26%,12%,21%,30%,85%,120%,60%,36%,25%,37%,18%,31%,47%,50%,74%,39%,24%,13.4 µM,48%,IC50 [1]: 1.4 µM; IC50 [2]: 2.7 µM; inhibition of growth at 10 µM [28]: 56%; IC50 [25]: 0.3 µM
